Measurements taken from US10077261B2, “Imidazolin-5-one derivative useful as FASN inhibitors for the treatment of cancer” (Janssen Pharmaceutica NV, priority 2012, dated 2018).

Experiments:
A2780 ovarian cells [1] = test: A2780 ovarian cell proliferation assay in lipid reduced medium, without palmitate (MTT); assay type: cell-based; conditions: Homo sapiens, A2780, 96 h; read-out: pIC50 A2780 Ovarian Cell, Without Palmitate (converted)
Description: (§1) The biological assays described below correspond to comparative assays for ovarian cell proliferation. […] Compounds active in the absence of palmitate would not be expected to be active in the control.
(§2) 2500 cells were seeded in a 96-well clear well plate in 200 μL RPMI1640 with 10% Fetal Calf Serum (Hyclone), and incubated at 37° C., 5% CO2. Blanks were wells without cells. The next day the culture medium was aspirated and replaced by 160 μL culture medium with 10% Lipid-Reduced Serum (LRS, Hyclone). 20 μL test compound (at concentrations of 30 μM, 10 μM, 3 μM, 1 μM, 0.30 μM, 0.10 μM, 0.03 μM and 0.01 μM)/DMSO dilution followed by 20 μL ethanol-BSA solution were added to a final concentrations of 0.2% DMSO, 0.2% fatty-acid-free BSA, 0.25% ethanol. After 96 h incubation an MTT assay was performed. The absorbance was measured at 544 nm on a SPECTRAMAX brand microplate reader (Molecular Devices).
where mLC and mHC were the means of the low control wells and high control wells on the plate, after manual exclusion of outliers. A plot of Controlmin versus test compound concentration was fitted to a 4-parameter logistic curve using a non-linear least squares regression method.
(§3) Representative compounds of the present invention were tested according to the procedure as described in Biological Example 3 above, with results as listed in Table 8, below.

[2] = target: T1, hFASN enzyme (full length) (Homo sapiens, UniProt P49327); test: Fatty Acid Synthase (FASN) inhibition scintillation proximity assay; assay type: biochemical; conditions: for inhibition at 10 µM: read-out: Human FASN % inhibition @ 10 μM, 10 μM test compound; for IC50: read-out: Human FASN pIC50 (converted)
T1 construct: 10 μL hFASN enzyme (full length, 300 ng, purified in house); made in house
In short: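 Proximity read-out: hydrophobic ^3H-palmitate formed from ^3H-acetyl-CoA and malonyl-CoA binds streptavidin imaging beads, imaged at 610±20 nm at least 24 h after stopping. Enzyme was in-house purified full-length hFASN, 300 ng, in pH 7.5 phosphate/DTT buffer; compound series 30 μM down to 0.01 μM, normalized to controls, 4-parameter fit.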

A2780 ovarian cells [3] = test: A2780 ovarian cell proliferation assay in lipid reduced medium, with palmitate (MTT); assay type: cell-based; conditions: Homo sapiens, A2780, 96 h; read-out: pIC50 A2780 Ovarian Cell, With Palmitate (converted)
Description: as §1
as §2, with “palmitate-BSA” for “ethanol-BSA”, “DMSO, 25 μM palmitate (Sigma, P0500, 10 mM stock solution in ethanol)” for “DMSO,”, “incubation,” for “incubation”
A best fit curve was fitted by a minimum sum of squares method, plotting Controlmin versus test compound concentration.
as §3

T1 sequence (P49327 whole entry): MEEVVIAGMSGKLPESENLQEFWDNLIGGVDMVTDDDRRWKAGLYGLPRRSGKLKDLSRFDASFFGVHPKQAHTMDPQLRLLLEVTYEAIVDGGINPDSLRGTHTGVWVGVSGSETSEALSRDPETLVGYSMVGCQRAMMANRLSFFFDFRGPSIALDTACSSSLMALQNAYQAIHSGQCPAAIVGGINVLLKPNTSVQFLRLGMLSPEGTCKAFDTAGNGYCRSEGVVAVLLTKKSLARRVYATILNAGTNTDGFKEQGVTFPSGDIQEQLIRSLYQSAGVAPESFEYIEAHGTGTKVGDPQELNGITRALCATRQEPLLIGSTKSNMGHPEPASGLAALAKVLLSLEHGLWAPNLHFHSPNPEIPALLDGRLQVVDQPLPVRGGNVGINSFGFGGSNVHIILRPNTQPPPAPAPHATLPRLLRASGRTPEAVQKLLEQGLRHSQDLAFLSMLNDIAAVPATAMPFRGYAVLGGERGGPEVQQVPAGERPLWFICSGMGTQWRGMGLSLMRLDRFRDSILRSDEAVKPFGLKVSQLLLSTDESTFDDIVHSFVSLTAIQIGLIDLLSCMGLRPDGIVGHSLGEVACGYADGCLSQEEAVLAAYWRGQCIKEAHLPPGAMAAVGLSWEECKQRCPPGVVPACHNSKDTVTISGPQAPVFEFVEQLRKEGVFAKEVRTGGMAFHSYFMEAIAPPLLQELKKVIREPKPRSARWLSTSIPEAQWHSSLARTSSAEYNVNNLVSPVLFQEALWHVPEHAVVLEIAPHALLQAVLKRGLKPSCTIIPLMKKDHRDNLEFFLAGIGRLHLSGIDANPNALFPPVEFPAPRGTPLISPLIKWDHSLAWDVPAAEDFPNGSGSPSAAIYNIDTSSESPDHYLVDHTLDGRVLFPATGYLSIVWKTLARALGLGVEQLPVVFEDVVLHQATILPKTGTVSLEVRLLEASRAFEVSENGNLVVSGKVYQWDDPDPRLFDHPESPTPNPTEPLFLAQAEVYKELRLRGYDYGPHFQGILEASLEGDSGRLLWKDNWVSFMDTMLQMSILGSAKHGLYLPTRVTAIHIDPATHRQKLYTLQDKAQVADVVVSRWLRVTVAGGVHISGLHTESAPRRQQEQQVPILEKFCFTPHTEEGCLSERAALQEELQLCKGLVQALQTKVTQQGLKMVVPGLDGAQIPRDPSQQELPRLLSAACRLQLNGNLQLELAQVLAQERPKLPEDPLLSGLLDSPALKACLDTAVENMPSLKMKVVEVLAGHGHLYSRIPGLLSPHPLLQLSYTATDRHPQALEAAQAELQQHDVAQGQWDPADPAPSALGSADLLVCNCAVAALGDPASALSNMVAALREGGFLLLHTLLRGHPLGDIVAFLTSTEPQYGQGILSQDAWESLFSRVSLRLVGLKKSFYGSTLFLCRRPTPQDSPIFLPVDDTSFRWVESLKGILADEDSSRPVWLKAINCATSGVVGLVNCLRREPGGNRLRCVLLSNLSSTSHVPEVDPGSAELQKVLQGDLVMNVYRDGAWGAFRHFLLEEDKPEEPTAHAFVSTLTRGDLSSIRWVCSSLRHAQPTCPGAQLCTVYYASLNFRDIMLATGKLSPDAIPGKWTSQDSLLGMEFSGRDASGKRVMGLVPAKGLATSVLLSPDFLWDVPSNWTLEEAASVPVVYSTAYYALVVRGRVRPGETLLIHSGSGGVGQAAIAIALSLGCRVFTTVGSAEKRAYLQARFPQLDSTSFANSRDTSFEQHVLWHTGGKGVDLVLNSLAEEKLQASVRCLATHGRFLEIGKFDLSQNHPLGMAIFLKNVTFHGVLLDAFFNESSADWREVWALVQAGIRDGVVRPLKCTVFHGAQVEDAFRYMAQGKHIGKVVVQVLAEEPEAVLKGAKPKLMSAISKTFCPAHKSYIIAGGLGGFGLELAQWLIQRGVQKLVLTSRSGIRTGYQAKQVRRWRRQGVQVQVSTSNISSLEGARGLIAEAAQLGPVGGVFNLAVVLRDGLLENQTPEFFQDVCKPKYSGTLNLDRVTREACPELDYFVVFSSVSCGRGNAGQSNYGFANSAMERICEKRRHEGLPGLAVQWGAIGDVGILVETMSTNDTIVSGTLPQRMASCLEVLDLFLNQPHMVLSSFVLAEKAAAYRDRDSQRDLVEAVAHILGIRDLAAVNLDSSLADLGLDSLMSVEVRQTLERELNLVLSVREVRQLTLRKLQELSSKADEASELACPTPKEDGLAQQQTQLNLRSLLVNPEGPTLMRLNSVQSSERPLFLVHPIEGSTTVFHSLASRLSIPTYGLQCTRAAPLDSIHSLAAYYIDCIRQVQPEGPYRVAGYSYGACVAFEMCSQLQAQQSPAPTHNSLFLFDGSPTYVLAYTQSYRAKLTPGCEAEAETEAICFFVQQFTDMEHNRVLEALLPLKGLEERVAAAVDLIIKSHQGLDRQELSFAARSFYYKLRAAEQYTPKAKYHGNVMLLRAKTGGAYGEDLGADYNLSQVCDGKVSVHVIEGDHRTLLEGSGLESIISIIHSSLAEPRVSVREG

IC50 (A2780 ovarian cells [1]) | inhibition at 10 µM [2] | IC50 [2] | IC50 (A2780 ovarian cells [3]) | SMILES
631 nM | 92.9% | 708 nM | > 10000 nM | O=C(C1CC1)N1CC[C@@H](CN2C(=O)C3(CC3)N=C2c2ccc(-c3ccc(O)cc3)cc2)C1 [compound 64, 6-{[(3R)-1-(Cyclopropylcarbonyl)pyrrolidin-3-yl]methyl}-5-(4′-hydroxybiphenyl-4-yl)-4,6-diazaspiro[2.4]hept-4-en-7-one]
148 nM | 111% | – | > 10000 nM | O=C(C1CC1)N1CC(CN2C(=O)C3(CCCC3)N=C2c2ccc(-c3ccc4[nH]ccc4c3)cc2)C1 [compound 78, 3-{[1-(Cyclopropylcarbonyl)azetidin-3-yl]methyl}-2-[4-(1H-indol-5-yl)phenyl]-1,3-diazaspiro[4.4]non-1-en-4-one]
35.5 nM | 121% | 28.2 nM | ~3020 nM | CC1(C(=O)N2CC[C@@H](CN3C(=O)C4(CCCC4)N=C3c3ccc(-c4ccc5occc5c4)cc3)C2)CC1 [compound 116, (R)-2-(4-(Benzofuran-5-yl)phenyl)-3-((1-(1-methylcyclopropanecarbonyl)pyrrolidin-3-yl)methyl)-1,3-diazaspiro[4.4]non-1-en-4-one]
~2400 nM | 108% | 204 nM | 9120 nM | O=C(N1CCCC1)N1CC[C@@H](CN2C(=O)C3(CCCC3)N=C2c2ccc(-c3ccc4occc4c3)cc2)C1 [compound 117, 2-[4-(1-Benzofuran-5-yl)phenyl]-3-{[(3S)-1-(pyrrolidin-1-ylcarbonyl)pyrrolidin-3-yl]methyl}-1,3-diazaspiro[4.4]non-1-en-4-one]
1660 nM | 101% | 355 nM | > 10000 nM | Cn1ccc(C(=O)N2CC[C@@H](CN3C(=O)C4(CCCC4)N=C3c3ccc(-c4ccc5occc5c4)cc3)C2)n1 [compound 118, 2-[4-(1-Benzofuran-5-yl)phenyl]-3-({(3R)-1-[(1-methyl-1H-pyrazol-3-yl)carbonyl]pyrrolidin-3-yl}methyl)-1,3-diazaspiro[4.4]non-1-en-4-one]
~2240 nM | 107% | 174 nM | 11000 nM | O=C(CC(F)(F)F)N1CC[C@@H](CN2C(=O)C3(CCCC3)N=C2c2ccc(-c3ccc4occc4c3)cc2)C1 [compound 119, 2-[4-(1-Benzofuran-5-yl)phenyl]-3-{[(3R)-1-(3,3,3-trifluoropropanoyl)pyrrolidin-3-yl]methyl}-1,3-diazaspiro[4.4]non-1-en-4-one]
~759 nM | 116% | 38.9 nM | 5010 nM | O=C(C1CC1)N1CC[C@@H](CN2C(=O)C3(CCCC3)N=C2c2ccc(-c3ccc4occc4c3)cc2F)C1 [compound 120, 2-[4-(1-Benzofuran-5-yl)-2-fluorophenyl]-3-{[(3R)-1-(cyclopropylcarbonyl)pyrrolidin-3-yl]methyl}-1,3-diazaspiro[4.4]non-1-en-4-one]
2190 nM | 115% | 91.2 nM | > 10000 nM | O=C(C1CC1)N1CC[C@@H](CN2C(=O)C3(CCCC3)N=C2c2ccc(-c3ccc(Cl)cc3)cc2F)C1 [compound 121, 2-(4′-Chloro-3-fluorobiphenyl-4-yl)-3-{[(3R)-1-(cyclopropylcarbonyl)pyrrolidin-3-yl]methyl}-1,3-diazaspiro[4.4]non-1-en-4-one]
234 nM | 112% | 123 nM | ~10000 nM | O=C(C1CC1)N1CC[C@@H](CN2C(=O)C3(CC3)N=C2c2ccc(-c3ccc(-c4cccnc4)cc3)cc2)C1 [compound 122, 6-{[(3R)-1-(Cyclopropylcarbonyl)pyrrolidin-3-yl]methyl}-5-(4′-pyridin-3-ylbiphenyl-4-yl)-4,6-diazaspiro[2.4]hept-4-en-7-one]
~288 nM | 113% | – | > 10000 nM | CN(C)c1ccc(-c2ccc(C3=NC4(CC4)C(=O)N3C[C@@H]3CCN(C(=O)C4CC4)C3)cc2)cc1 [compound 124, 6-{[(3R)-1-(Cyclopropylcarbonyl)pyrrolidin-3-yl]methyl}-5-[4′-(dimethylamino)biphenyl-4-yl]-4,6-diazaspiro[2.4]hept-4-en-7-one]
> 10000 nM | 96.3% | 646 nM | > 10000 nM | O=C(C1CC1)N1CC[C@@H](CN2C(=O)C3(CC3)N=C2c2ccc(-c3cccc(C(F)(F)F)c3)cc2)C1 [compound 126, 6-{[(3R)-1-(Cyclopropylcarbonyl)pyrrolidin-3-yl]methyl}-5-[3′-(trifluoromethyl)biphenyl-4-yl]-4,6-diazaspiro[2.4]hept-4-en-7-one]
933 nM | 107% | 490 nM | 7590 nM | Cn1ncc2cc(-c3ccc(C4=NC5(CCN(CCO)CC5)C(=O)N4C[C@@H]4CCN(C(=O)C5CC5)C4)cc3)ccc21 [compound 127, (R)-3-((1-(Cyclopropanecarbonyl)pyrrolidin-3-yl)methyl)-8-(2-hydroxyethyl)-2-(4-(1-methyl-1H-indazol-5-yl)phenyl)-1,3,8-triazaspiro[4.5]dec-1-en-4-one]
~3160 nM | 99.1% | 447 nM | > 10000 nM | O=C(C1CC1)N1CC[C@@H](CN2C(=O)C3(CCNCC3)N=C2c2ccc(-c3ccc4occc4c3)cc2)C1 [compound 133, 2-[4-(1-Benzofuran-5-yl)phenyl]-3-{[(3R)-1-(cyclopropylcarbonyl)pyrrolidin-3-yl]methyl}-1,3,8-triazaspiro[4.5]dec-1-en-4-one]
4470 nM | 91.7% | 562 nM | > 10000 nM | O=C(C1CC1)N1CCC2(CC1)N=C(c1ccc(-c3ccc4occc4c3)cc1)N(CC1CN(C(=O)C3CC3)C1)C2=O [compound 134, 2-[4-(1-Benzofuran-5-yl)phenyl]-8-(cyclopropylcarbonyl)-3-{[1-(cyclopropylcarbonyl)azetidin-3-yl]methyl}-1,3,8-triazaspiro[4.5]dec-1-en-4-one]
~851 nM | 112% | 178 nM | ~6030 nM | CC(C)C(=O)N1CCC2(CC1)N=C(c1ccc(-c3ccc4cnccc4c3)cc1)N(CC1CN(C(=O)C3CC3)C1)C2=O [compound 137, 3-{[1-(Cyclopropylcarbonyl)azetidin-3-yl]methyl}-2-(4-isoquinolin-6-ylphenyl)-8-(2-methylpropanoyl)-1,3,8-triazaspiro[4.5]dec-1-en-4-one]
~6.46 nM | 94% | 39.8 nM | ~1510 nM | CC1(C(=O)N2CC[C@@H](CN3C(=O)C4(CC4)N=C3c3ccc(-c4ccc5cc(F)ccc5c4)cc3F)C2)CC1 [compound 363, (R)-5-(2-fluoro-4-(6-fluoronaphthalen-2-yl)phenyl)-6-((1-(1-methylcyclopropancecarbonyl)pyrrolidin-3-yl)methyl)-4,6-diazaspiro[2.4]hept-4-en-7-one]
~2.95 nM | 89% | 57.5 nM | 229 nM | Cn1cc(-c2ccc(-c3ccc(C4=NC5(CC5)C(=O)N4C[C@@H]4CCN(C(=O)C5(C)CC5)C4)c(F)c3)cc2)cn1 [compound 364, (R)-5-(3-fluoro-4′-(1-methyl-1H-pyrazol-4-yl)-[1,1′-biphenyl]-4-yl)-6-((1-(1-methylcyclopropanecarbonyl)pyrrolidin-3-yl)methyl)-4,6-diazaspiro[2.4]hept-4-en-7-one]
> 3020 nM | – | – | > 3020 nM | N#CCCn1cc2cc(-c3ccc(C4=NC5(CC5)C(=O)N4CC4CN(C(=O)C5CC5)C4)cc3)ccc2n1 [compound 842, 3-(5-(4-(6-((1-(cyclopropanecarbonyl)azetidin-3-yl)methyl)-7-oxo-4,6-diazaspiro[2.4]hept-4-en-5-yl)phenyl)-2H-indazol-2-yl)propanenitrile]
